Drawing on PMC11864979, “First-in-class ultralong-target-residence-time p38α inhibitors as a mitosis-targeted therapy for colorectal cancer” (Nature Cancer, 2025), this text covers remaining activity for one molecule.

Assay in all cases: selectivity profiling in a panel of 340 wild-type kinases (Reaction Biology Europe)
What all share (assay type): binding

Test [1] addresses T1, 340 wild-type kinases (Homo sapiens, UniProt P16591).
T1 construct: purchased Reaction Biology Europe

Test [2] addresses T2, 340 wild-type kinases (Homo sapiens, UniProt P51812).
T2 construct: purchased Reaction Biology Europe

Test [3] concerns the target T3, 340 wild-type kinases (Homo sapiens, UniProt Q16288).
T3 construct: purchased Reaction Biology Europe

Test [4] has as its target T4, 340 wild-type kinases (Homo sapiens, UniProt Q96KB5).
T4 construct: purchased Reaction Biology Europe
T4 sequence (Q96KB5 1-322): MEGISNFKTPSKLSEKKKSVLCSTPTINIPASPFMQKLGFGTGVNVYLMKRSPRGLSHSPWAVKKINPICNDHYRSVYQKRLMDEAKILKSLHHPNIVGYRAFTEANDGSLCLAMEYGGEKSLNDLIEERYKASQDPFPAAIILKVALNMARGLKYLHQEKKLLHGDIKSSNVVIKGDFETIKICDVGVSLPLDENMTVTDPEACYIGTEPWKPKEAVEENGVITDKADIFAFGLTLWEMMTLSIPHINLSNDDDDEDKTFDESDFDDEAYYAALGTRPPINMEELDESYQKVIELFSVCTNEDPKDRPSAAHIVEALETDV

Test [5] addresses T5, 340 wild-type kinases (Homo sapiens, UniProt Q99683).
T5 construct: purchased Reaction Biology Europe
T5 sequence (Q99683 1-1374): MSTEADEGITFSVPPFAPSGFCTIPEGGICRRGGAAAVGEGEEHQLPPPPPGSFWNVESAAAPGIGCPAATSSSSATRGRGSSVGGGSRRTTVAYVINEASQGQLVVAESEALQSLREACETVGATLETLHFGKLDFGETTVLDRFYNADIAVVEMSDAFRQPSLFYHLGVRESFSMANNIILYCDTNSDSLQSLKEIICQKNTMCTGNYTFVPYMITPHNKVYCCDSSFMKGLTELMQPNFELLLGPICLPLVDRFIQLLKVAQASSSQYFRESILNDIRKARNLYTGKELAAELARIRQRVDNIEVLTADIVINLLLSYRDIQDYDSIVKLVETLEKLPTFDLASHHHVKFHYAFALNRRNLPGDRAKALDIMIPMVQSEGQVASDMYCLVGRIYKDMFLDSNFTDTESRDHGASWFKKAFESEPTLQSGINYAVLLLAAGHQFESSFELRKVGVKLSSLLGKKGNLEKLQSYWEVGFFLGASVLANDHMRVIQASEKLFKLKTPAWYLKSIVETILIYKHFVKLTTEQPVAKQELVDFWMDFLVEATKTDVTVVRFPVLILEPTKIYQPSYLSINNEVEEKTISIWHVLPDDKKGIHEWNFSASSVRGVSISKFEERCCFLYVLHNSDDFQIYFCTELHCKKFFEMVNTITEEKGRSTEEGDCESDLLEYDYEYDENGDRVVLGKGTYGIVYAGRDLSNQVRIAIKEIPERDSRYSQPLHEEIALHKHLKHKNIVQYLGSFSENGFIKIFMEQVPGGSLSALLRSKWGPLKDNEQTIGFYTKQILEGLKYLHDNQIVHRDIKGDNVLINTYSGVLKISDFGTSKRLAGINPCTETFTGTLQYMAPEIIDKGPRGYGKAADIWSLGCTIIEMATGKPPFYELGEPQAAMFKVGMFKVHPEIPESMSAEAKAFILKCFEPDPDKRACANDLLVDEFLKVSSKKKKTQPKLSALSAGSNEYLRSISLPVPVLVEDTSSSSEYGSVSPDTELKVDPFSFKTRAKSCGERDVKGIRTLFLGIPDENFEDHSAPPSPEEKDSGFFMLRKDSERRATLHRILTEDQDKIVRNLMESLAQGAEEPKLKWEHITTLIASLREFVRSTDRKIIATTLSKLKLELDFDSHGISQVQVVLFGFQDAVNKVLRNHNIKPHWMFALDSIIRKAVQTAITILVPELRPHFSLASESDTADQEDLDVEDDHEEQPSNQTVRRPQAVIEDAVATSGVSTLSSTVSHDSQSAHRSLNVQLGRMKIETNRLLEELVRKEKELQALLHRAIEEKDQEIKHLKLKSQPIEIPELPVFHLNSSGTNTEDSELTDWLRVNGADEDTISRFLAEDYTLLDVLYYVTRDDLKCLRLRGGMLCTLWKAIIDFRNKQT

Test [6] has as its target T6, 340 wild-type kinases (Homo sapiens, UniProt Q9HBH9).
T6 construct: purchased Reaction Biology Europe

Where two headings read alike, the source gives them in different places.

T6 sequence (Q9HBH9 whole entry): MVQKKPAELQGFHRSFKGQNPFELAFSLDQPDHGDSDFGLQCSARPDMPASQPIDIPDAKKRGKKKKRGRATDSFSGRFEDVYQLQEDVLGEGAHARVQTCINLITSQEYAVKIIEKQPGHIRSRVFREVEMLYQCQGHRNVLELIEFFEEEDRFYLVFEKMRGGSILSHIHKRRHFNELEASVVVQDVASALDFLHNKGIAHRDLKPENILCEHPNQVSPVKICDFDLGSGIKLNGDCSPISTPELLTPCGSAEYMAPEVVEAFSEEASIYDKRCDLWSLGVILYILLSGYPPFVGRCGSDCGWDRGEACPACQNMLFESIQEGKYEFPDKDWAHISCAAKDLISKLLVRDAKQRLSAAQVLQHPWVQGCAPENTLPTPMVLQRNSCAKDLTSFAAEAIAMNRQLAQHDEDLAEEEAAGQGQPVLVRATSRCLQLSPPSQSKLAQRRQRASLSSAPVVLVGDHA
T2 sequence (P51812 whole entry): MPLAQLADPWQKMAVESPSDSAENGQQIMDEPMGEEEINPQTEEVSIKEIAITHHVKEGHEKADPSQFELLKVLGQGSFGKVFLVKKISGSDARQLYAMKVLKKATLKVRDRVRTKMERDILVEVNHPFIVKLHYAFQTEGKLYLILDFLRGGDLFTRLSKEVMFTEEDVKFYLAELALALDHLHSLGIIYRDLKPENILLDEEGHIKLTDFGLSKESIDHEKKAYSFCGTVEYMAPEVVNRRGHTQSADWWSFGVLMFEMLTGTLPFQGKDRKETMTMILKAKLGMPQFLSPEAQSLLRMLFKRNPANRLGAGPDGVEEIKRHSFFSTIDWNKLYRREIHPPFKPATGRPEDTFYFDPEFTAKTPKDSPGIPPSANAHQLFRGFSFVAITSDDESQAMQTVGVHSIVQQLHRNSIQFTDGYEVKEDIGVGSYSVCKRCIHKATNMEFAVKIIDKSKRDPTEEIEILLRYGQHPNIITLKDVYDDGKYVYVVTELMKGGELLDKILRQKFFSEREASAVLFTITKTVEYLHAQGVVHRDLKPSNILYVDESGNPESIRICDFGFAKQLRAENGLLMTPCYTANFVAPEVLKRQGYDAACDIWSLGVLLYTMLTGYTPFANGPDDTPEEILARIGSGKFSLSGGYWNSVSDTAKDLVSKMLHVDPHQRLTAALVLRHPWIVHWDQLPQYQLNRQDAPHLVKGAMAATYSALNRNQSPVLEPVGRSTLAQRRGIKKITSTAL
T3 sequence (Q16288 32-839): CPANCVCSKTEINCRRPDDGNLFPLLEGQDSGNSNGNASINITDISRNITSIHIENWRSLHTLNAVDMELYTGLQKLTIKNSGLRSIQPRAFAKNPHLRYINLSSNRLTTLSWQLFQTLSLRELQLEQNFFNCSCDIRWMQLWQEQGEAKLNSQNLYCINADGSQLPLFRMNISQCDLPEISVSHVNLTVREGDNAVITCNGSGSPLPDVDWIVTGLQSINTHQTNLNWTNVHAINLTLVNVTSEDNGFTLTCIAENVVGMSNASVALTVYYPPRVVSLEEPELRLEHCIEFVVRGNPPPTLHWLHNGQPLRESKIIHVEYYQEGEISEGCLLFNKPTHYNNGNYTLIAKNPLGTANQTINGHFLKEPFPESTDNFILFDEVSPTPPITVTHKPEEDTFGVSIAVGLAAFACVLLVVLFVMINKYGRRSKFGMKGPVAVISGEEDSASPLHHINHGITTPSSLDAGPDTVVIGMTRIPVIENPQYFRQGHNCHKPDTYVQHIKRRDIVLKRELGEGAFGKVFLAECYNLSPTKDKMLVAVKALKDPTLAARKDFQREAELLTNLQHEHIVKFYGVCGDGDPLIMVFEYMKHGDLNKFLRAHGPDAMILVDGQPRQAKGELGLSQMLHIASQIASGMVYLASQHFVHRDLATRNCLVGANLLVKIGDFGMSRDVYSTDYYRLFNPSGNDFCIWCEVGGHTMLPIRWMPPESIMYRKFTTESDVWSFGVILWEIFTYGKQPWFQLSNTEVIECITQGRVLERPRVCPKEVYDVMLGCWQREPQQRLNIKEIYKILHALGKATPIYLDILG
T1 sequence (P16591 whole entry): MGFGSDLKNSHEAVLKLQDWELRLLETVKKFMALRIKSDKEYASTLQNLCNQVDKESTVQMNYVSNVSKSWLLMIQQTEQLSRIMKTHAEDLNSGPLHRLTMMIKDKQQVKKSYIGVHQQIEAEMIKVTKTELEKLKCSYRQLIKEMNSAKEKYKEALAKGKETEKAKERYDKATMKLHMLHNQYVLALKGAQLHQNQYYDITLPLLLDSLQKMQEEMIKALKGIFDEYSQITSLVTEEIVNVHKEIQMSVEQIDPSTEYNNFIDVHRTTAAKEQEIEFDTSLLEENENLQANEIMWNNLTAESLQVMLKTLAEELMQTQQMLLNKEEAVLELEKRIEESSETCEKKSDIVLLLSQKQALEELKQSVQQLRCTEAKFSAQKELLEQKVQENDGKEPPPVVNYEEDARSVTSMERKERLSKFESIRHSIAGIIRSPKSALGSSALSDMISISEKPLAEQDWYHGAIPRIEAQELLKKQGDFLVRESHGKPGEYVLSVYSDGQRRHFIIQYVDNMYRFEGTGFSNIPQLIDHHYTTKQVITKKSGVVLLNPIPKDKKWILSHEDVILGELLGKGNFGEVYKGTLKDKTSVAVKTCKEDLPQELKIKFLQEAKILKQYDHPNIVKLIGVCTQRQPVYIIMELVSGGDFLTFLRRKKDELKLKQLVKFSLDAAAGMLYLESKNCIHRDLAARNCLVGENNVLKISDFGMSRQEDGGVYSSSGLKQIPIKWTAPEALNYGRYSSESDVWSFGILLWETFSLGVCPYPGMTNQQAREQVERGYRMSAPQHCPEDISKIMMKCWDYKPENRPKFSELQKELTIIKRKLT

Turning to `CNC(=O)c1ccc2c(c1)C(=O)c1ccc(Nc3ccc(F)c(NC(=O)C4CC4)c3)cc1CC2` [Compound 2015], the remaining activity at 0.2 µM was found to be 125% at 340 wild-type kinases [1] (0.2 µM 2015, read-out: FER residual activity); 125% on 340 wild-type kinases [1] (FER, 0.2 µM, read-out: residual activity); 107% on 340 wild-type kinases [2] (0.2 µM 2015, read-out: RPS6KA3 residual activity); 107% on 340 wild-type kinases [2] (RPS6KA3, 0.2 µM, read-out: residual activity); 104% at 340 wild-type kinases [3] (0.2 µM 2015, read-out: TRKC residual activity); 104% at 340 wild-type kinases [3] (TRKC, 0.2 µM, read-out: residual activity). Also, the remaining activity at 0.2 µM worked out at 96.5% at 340 wild-type kinases [4] (0.2 µM 2015, read-out: PBK residual activity); 96.5% at 340 wild-type kinases [4] (PBK, 0.2 µM, read-out: residual activity); 95.5% at 340 wild-type kinases [5] (0.2 µM 2015, read-out: ASK1 residual activity); 95.5% at 340 wild-type kinases [5] (ASK1, 0.2 µM, read-out: residual activity); 105% on 340 wild-type kinases [6] (0.2 µM 2015, read-out: MKNK2 residual activity); 105% on 340 wild-type kinases [6] (MKNK2, 0.2 µM, read-out: residual activity). Moreover, the remaining activity at 1 µM at 340 wild-type kinases [1] (1 µM 2015, read-out: FER residual activity) came out at 102%; on 340 wild-type kinases [1] (FER, 1 µM, read-out: residual activity), 102%; on 340 wild-type kinases [2] (1 µM 2015, read-out: RPS6KA3 residual activity), 103%; on 340 wild-type kinases [2] (RPS6KA3, 1 µM, read-out: residual activity), 103%; on 340 wild-type kinases [3] (1 µM 2015, read-out: TRKC residual activity) it was 94.3%; on 340 wild-type kinases [3] (TRKC, 1 µM, read-out: residual activity), 94.3%. Moreover, the remaining activity at 1 µM on 340 wild-type kinases [4] (1 µM 2015, read-out: PBK residual activity) turned out to be 79.7%; at 340 wild-type kinases [4] (PBK, 1 µM, read-out: residual activity) it was 79.7%; on 340 wild-type kinases [5] (1 µM 2015, read-out: ASK1 residual activity) it was 95%; at 340 wild-type kinases [5] (ASK1, 1 µM, read-out: residual activity), 95%; at 340 wild-type kinases [6] (1 µM 2015, read-out: MKNK2 residual activity), 102%; at 340 wild-type kinases [6] (MKNK2, 1 µM, read-out: residual activity), 102%.
